In US20120295920A1, “5-AMINO-4-HYDROXYPENTOYL AMIDES” (priority 2009, published 2012):
Where two headings read alike, the source gives them in different places.

How the values were obtained:
HIV-1 wild-type strain = assay: General antiviral assay, cell-based virus replication in MT4-LTR-EGFP cells, wild-type strain; settings: Human immunodeficiency virus 1; wild-type strain IIIB, MT4-LTR-EGFP cells
Procedure, shortened: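 HIV LTR-driven EGFP reporter MT4 cells (150,000 cells/ml) infected at MOI 0.0025 with or without inhibitor at various concentrations. Read-out either GFP fluorescence on day 3 post-infection or resazurin cell viability on day 4.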

[1] = system: HIV-1 Strain A (M046I, I084V); assay: microbe, parasite or virus in culture; type: cell-based; settings: Human immunodeficiency virus 1, read-out: A EC50
Procedure, shortened: (§1)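 MT4 cells stably carrying an HIV LTR-driven EGFP reporter (150,000 cells/ml) were infected at MOI 0.0025 with or without inhibitor dilutions. Replication was read either as GFP fluorescence on day 3 post-infection or as cell viability by resazurin on day 4.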

[2] = system: HIV-1 Strain B (M046I, I050V); assay: microbe, parasite or virus in culture; type: cell-based; settings: Human immunodeficiency virus 1, read-out: B EC50
Procedure, shortened: as §1

[3] = system: HIV-1 Strain C (G048G/V, V082A); assay: microbe, parasite or virus in culture; type: cell-based; settings: Human immunodeficiency virus 1, read-out: C EC50
Procedure, shortened: as §1

[4] = General toxicity assay on mock-infected MT4 cells with CMV-EGFP reporter (CC50); type: cell-based; settings: human
HIV-1 IIIB = assay: 50% HS-Rezazurin: antiviral assay in the presence of 50% human serum, MT-4 cells, resazurin cell viability; type: cell-based; settings: Human immunodeficiency virus 1, IIIB, MT4, 96 h
Procedure, shortened: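 MT-4 cells infected with HIV-1 IIIB (MOI 0.001 to 0.01 CCID50/cell) for 1 h, washed, then plated onto serial compound dilutions in 50% human serum (10% FCS alternative). After 4 days, EC50 derived from resazurin cell viability.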

[5] = MT4LTR cells, read-out: TOX-MT4LTR (CC50)
[6] = mock-infected MT4 cells with CMV-EGFP reporter, read-out: TOX-MT4CMV (CC50)

SMILES | EC50 (HIV-1 wild-type strain) | EC50 [1] | EC50 [2] | EC50 [3] | CC50 [4, 5] | EC50 (HIV-1 IIIB) | melting point | CC50 [4, 6]
COC(=O)N[C@H](C(=O)N[C@@H](Cc1ccc(-c2ccc(N(C)C)nc2)cc1)[C@@H](O)C[C@@H](Cc1ccccc1F)C(=O)N[C@H]1c2cc(F)cc(Cl)c2OC[C@H]1O)C(C)(C)C [Compound 52] | 1.8 nM | 1.2 nM | 0.9 nM | 0.7 nM | > 32 µM | 6.2 nM | 255.44 °C | –
CN(C)c1ccc(-c2ccc(C[C@H](NC(=O)[C@@H](NC(=O)C3(C#N)CC3)C(C)(C)C)[C@@H](O)C[C@@H](Cc3ccccc3F)C(=O)N[C@H]3c4cc(F)ccc4OC[C@H]3O)cc2)cn1 [Compound 53] | 2.3 nM | 4.1 nM | 2 nM | 2 nM | > 32 µM | 9.5 nM | – | –
COC(=O)N[C@H](C(=O)N[C@@H](Cc1ccc(-c2ccc(OC)nc2)cc1)[C@@H](O)C[C@@H](Cc1cccc(OC(F)(F)F)c1)C(=O)N[C@H]1c2cc(F)ccc2OC[C@H]1O)C(C)(C)C [Compound 64] | 2.6 nM | 3 nM | 1.6 nM | 1.3 nM | > 32 µM | 15.1 nM | – | –
CN(C)c1ccc(-c2ccc(C[C@H](NC(=O)O[C@H]3CO[C@H]4OCC[C@H]43)[C@@H](O)C[C@@H](Cc3ccccc3F)C(=O)N[C@H]3c4cc(Cl)ccc4OC[C@H]3O)cc2)cn1 [Compound 79] | 1.7 nM | 1.1 nM | 1 nM | 0.7 nM | > 32 µM | 12.8 nM | – | –
CNC(=O)[C@@H](NC(=O)[C@H](Cc1ccccc1F)C[C@H](O)[C@H](Cc1ccc(-c2ccc(N(C)C)nc2)cc1)NC(=O)[C@@H](NC(=O)OC)C(C)(C)C)C(C)(C)C [Compound 90] | 4.7 nM | 4.8 nM | 2.6 nM | 2.8 nM | – | 13.6 nM | – | > 32 µM
COC(=O)N[C@H](C(=O)N[C@@H](Cc1ccc(-c2ccc(OC)nc2)cc1)[C@@H](O)C[C@@H](Cc1ccccc1F)C(=O)N[C@H]1c2ccsc2CC[C@H]1O)C(C)(C)C [Compound 93] | 1.3 nM | 0.8 nM | 0.6 nM | 0.4 nM | > 32 µM | 3.5 nM | – | > 32 µM
COC(=O)N[C@H](C(=O)N[C@@H](Cc1ccc(-c2ccc(OC)nc2)cc1)[C@@H](O)C[C@@H](Cc1ccccc1F)C(=O)N[C@H]1[C@H](C)CCC[C@H]1O)C(C)(C)C [Compound 96] | 0.9 nM | 0.7 nM | 0.4 nM | 0.5 nM | > 32 µM | 2 nM | – | –
